From PMC10317887, “Hypoglycaemia frequency and physiological response after double or triple doses of once-weekly insulin icodec vs once-daily insulin glargine U100 in type 2 diabetes: a randomised crossover trial” (Diabetologia, 2023)
Like-named read-outs stand apart in the source and are kept apart here.

Legend:
[1] = tested on: type 1 diabetes; conditions: cited from earlier work
Excerpt: In addition, the low insulin receptor binding affinity of icodec contributes to its long half-life by reducing the clearance rate, as insulin is mainly cleared by internalisation following binding to and activation of the insulin receptor [9, 10]. In case of excess amounts of icodec throughout the body, e.g ...

[2] = tested on: growth hormone; test: Counterregulatory hormone response: serum growth hormone (electrochemiluminescent immunoassay); type: in vivo, human; conditions: serum, subgroup; for Growth hormone at PGnadir, estimated geometric mean: n=19 icodec
Experimental: (§1) Plasma concentrations of glucagon were measured by an enzyme-linked immunosorbent assay (Mercodia AB, Uppsala, Sweden). Plasma concentrations of adrenaline (epinephrine) and noradrenaline (norepinephrine) were measured by liquid chromatography-mass spectrometry (Thermo Fisher Scientific, Dreieich, Germany). Serum concentrations of cortisol and growth hormone were measured by electrochemiluminescent immunoassays (Roche Diagnostics, Mannheim, Germany).

[3] = tested on: adrenaline (epinephrine); test: Counterregulatory hormone response: plasma adrenaline (LC-MS); type: in vivo, human; conditions: plasma, subgroup
Experimental: as §1

[4] = tested on: individuals with type 2 diabetes; test: Hypoglycaemia awareness question 'Do you feel hypo?' during hypoglycaemia induction; type: in vivo, human; conditions: subgroup
Experimental: Hypoglycaemia awareness was determined by asking the question, ‘Do you feel hypo?’, to the participant.

[5] = tested on: individuals with type 2 diabetes; type: in vivo, human; conditions: for Mean PGnadir, estimated geometric mean: all participants; for Time to recovery from PGnadir to PG5.5 mmol/l, estimated geometric mean: constant i.v. glucose 5.5 mg kg^−1 min^−1; for Time to recovery from PGnadir to PG5.5 mmol/l, estimated geometric mean / Glucose needed from PGnadir to PG5.5 mmol/l, estimated geometric mean: individuals with PG <3.3 mmol/l at initiation of recovery; for Time to decline from PG5.5 mmol/l to PG3.9 mmol/l, estimated geometric mean: individuals with PG decline to <3.0 mmol/l and/or hypoglycaemia symptoms; for Time to decline from PG5.5 mmol/l to PG3.0 mmol/l, estimated geometric mean: individuals with PG decline to <3.0 mmol/l; for Mean PGnadir in the subgroup analysis: subgroup PGnadir <3.0 mmol/l and/or symptoms
Experimental: During the two treatment periods, participants received once-weekly icodec for 6 weeks or once-daily glargine U100 for 11 days in randomised order. […] Treatment periods were separated by 35–49 days of washout following icodec and 4–11 days of washout following glargine U100. Icodec (4200 nmol/ml; Novo Nordisk, Bagsværd, Denmark) was administered s.c. in the left thigh at 20:00 hours by qualified site staff using a NovoPen 4 pen injector (Novo Nordisk). […] At the start of week 1, a one-time additional 100% icodec dose was administered to accelerate time to steady state, followed by a normal dose at week 2, a double dose at week 3 (prior to hypoglycaemia induction), no dose at week 4 (due to the double dose given the week before), a normal dose at week 5, and a triple dose at week 6 (prior to hypoglycaemia induction). Insulin glargine U100 (100 U/ml [600 nmol/ml]; Sanofi, Paris, France) was administered s.c. in the right thigh at 09:00 hours by qualified site staff using a SoloStar pen injector (Sanofi). A normal dose of once-daily glargine U100 was established during run in. Glargine U100 was administered at a normal dose for 3 days followed by a double dose on day 4 (prior to hypoglycaemia induction), no dose on day 5 (due to the double dose given the day before), then a normal dose for 5 days, and a triple dose on day 11 (prior to hypoglycaemia induction).
Hypoglycaemia induction was carried out during weeks 3 (double dose) and 6 (triple dose) for icodec and on days 4 (double dose) and 11 (triple dose) for glargine U100 while at steady state. To initiate hypoglycaemia induction, participants should not have experienced hypoglycaemia (PG <3.9 mmol/l) within 24 h or have any relevant medical condition that could confound the outcomes or pose unacceptable risk to the participant. Hypoglycaemia induction (Fig. 1b) was initiated at 16:00 hours 2 days after double/triple icodec dosing (44 h post dose) and on the day of double/triple glargine U100 dosing (7 h post dose). These timings were selected since they approximated the expected time of maximum glucose-lowering effect for both insulin products based on pharmacokinetic/pharmacodynamic modelling performed prior to the trial. For 7.5 h prior to hypoglycaemia induction, PG was kept at 5.5 mmol/l by variable i.v. infusion of glucose (20% wt/vol) or human soluble insulin (100 U/ml in 99.6 ml saline [154 mmol/l NaCl]). PG was measured by a Super GL2 Glucose Analyzer (Dr. Müller Gerätebau, Freital, Germany). Insulin infusion was terminated 60 min prior to hypoglycaemia induction at the latest. PG was maintained at 5.5 mmol/l±20% from 60 min to 30 min prior to hypoglycaemia induction and at 5.5 mmol/l±10% during the last 30 min prior to hypoglycaemia induction. Hypoglycaemia induction was initiated by terminating glucose infusion, thereby allowing PG to decline towards the minimum (nadir) PG target level of no less than 2.5 mmol/l. The handling of alternative scenarios, e.g. PGnadir >2.5 mmol/l, slow PG decline towards hypoglycaemia or slow recovery from hypoglycaemia, is described in electronic supplementary material (ESM) Methods. The investigator recorded if the PGnadir was <3.0 mmol/l or ≥3.0 mmol/l with hypoglycaemic symptoms. The PGnadir level was maintained for 15 min by variable i.v. glucose as needed. Subsequently, euglycaemia was restored by constant i.v. glucose (5.5 mg kg^−1 min^−1) until PG was 5.5 mmol/l, which was maintained until the next morning (between 07:00 hours and 09:00 hours) by variable i.v. glucose. During hypoglycaemia induction, participants remained fasted (except for water ad libitum) and stayed in a supine or semi-supine position (except when cognitive tests were performed). Participants stayed at the clinical site for at least 12 h following each hypoglycaemia induction experiment. […]

[6] = tested on: individuals with type 2 diabetes; conditions: in vivo
Excerpt: Safety assessments during the trial included adverse events (AEs), hypoglycaemic episodes (other than those induced), vital signs (other than those assessed during hypoglycaemia induction), electrocardiograms, physical examinations and clinical laboratory assessments (haematology, biochemistry and urinalysis).
AEs and hypoglycaemic episodes (other than those induced) during the treatment periods were summarised. The end of each treatment period was defined as 7 days after the last icodec dose and 2 days after the last glargine U100 dose. […] Hypoglycaemic episodes were classified as level 1 (PG <3.9 mmol/l and ≥3.0 mmol/l), level 2 (PG <3.0 mmol/l) and level 3 (severe cognitive impairment requiring assistance for recovery) [20].

[7] = tested on: glucagon; test: Counterregulatory hormone response: plasma glucagon (ELISA); type: in vivo, human; conditions: plasma, subgroup
Experimental: as §1

[8] = tested on: cortisol; test: Counterregulatory hormone response: serum cortisol (electrochemiluminescent immunoassay); type: in vivo, human; conditions: serum, subgroup; for Cortisol at PGnadir, estimated geometric mean: n=19 icodec
Experimental: as §1

[9] = tested on: noradrenaline (norepinephrine); test: Counterregulatory hormone response: plasma noradrenaline (LC-MS); type: in vivo, human; conditions: plasma, subgroup
Experimental: as §1

[10] = double dose, n=17 icodec, 15 glargine U100
[11] = triple dose, n=20 icodec, 28 glargine U100
[12] = double dose, n=20 icodec, 19 glargine U100
[13] = triple dose, n=20 icodec, 29 glargine U100
[14] = double dose, n=15 icodec, 13 glargine U100
[15] = triple dose, n=18 icodec, 22 glargine U100

insulin degludec
Participants with clinically significant hypoglycaemia ([1]; type 1 diabetes, triple doses, ref [8], [24]): almost all participants

insulin detemir
Participants with clinically significant hypoglycaemia ([1]; in vivo): 78%

insulin glargine U100
Growth hormone at PG3.0 mmol/l, estimated geometric mean [2, 10]: 4.1 µg/L
Growth hormone at PGnadir, estimated geometric mean ([2]; double dose, 19 glargine U100): 3.5 µg/L
Growth hormone at PGnadir, estimated geometric mean ([2]; triple dose, 29 glargine U100): 3.5 µg/L
Growth hormone at PG3.0 mmol/l, estimated geometric mean [2, 11]: 2.4 µg/L
Adrenaline at PG3.0 mmol/l, estimated geometric mean [3, 10]: 528.3 pmol/L
Adrenaline at PGnadir, estimated geometric mean [3, 12]: 590.9 pmol/L
Adrenaline at PG3.0 mmol/l, estimated geometric mean [3, 11]: 312.2 pmol/L
Adrenaline at PGnadir, estimated geometric mean [3, 13]: 570.9 pmol/L
Participants with clinically significant hypoglycaemia ([1]; in vivo): almost all participants
Proportion of individuals answering 'Yes' to 'Do you feel hypo?' ([4]; double dose, at PG3.0 mmol/l, n=9/17 icodec, 2/15 glargine U100): 13.3%
Proportion of individuals answering 'Yes' to 'Do you feel hypo?' ([4]; double dose, at PGnadir, n=14/20 icodec, 10/19 glargine U100): 52.6%
Proportion of individuals answering 'Yes' to 'Do you feel hypo?' ([4]; triple dose, at PG3.0 mmol/l, n=5/20 icodec, 8/28 glargine U100): 28.6%
Proportion of individuals answering 'Yes' to 'Do you feel hypo?' ([4]; triple dose, at PGnadir, n=9/20 icodec, 15/29 glargine U100): 51.7%
Time to full recovery from hypoglycaemia ([5]; constant i.v. glucose infusion at 5.5 mg kg^−1 min^−1, double and triple doses): ≤ 30 min
Mean PGnadir, estimated geometric mean ([5]; double dose, n=43 icodec, 42 glargine U100): 3.3 mmol/L
Time to recovery from PGnadir to PG5.5 mmol/l, estimated geometric mean [5, 14]: 21.0 min
Glucose needed from PGnadir to PG5.5 mmol/l, estimated geometric mean [5, 14]: 111 mg/kg
Time to decline from PG5.5 mmol/l to PG3.9 mmol/l, estimated geometric mean [5, 12]: 1.1 h
Time to decline from PG5.5 mmol/l to PG3.0 mmol/l, estimated geometric mean [5, 10]: 4.5 h
Mean PGnadir in the subgroup analysis ([5]; double dose): 2.9 mmol/L
Mean PGnadir, estimated geometric mean ([5]; triple dose, n=38 icodec, 40 glargine U100): 2.9 mmol/L
Time to recovery from PGnadir to PG5.5 mmol/l, estimated geometric mean [5, 15]: 23.3 min
Glucose needed from PGnadir to PG5.5 mmol/l, estimated geometric mean [5, 15]: 115 mg/kg
Time to decline from PG5.5 mmol/l to PG3.9 mmol/l, estimated geometric mean [5, 13]: 0.7 h
Time to decline from PG5.5 mmol/l to PG3.0 mmol/l, estimated geometric mean [5, 11]: 2.2 h
Mean PGnadir in the subgroup analysis ([5]; triple dose): 2.7 mmol/L
AE rate [6]: 21.3 AEs per participant-year of exposure
Duration of level 2 hypoglycaemic episodes, mean±SD [6]: 37.7 ± 15.0 min
Number of AEs reported [6]: 33 AEs
Rate of clinically significant hypoglycaemic episodes (level 2, PG <3.0 mmol/l) [6]: 3.0 episodes per participant-year of exposure
Severe hypoglycaemic episodes (level 3) [6]: no severe hypoglycaemic episodes
Glucagon at PG3.0 mmol/l, estimated geometric mean [7, 10]: 47.7 ng/L
Glucagon at PGnadir, estimated geometric mean ([7]; double dose, n=19 icodec, 19 glargine U100): 53.1 ng/L
Glucagon at PG3.0 mmol/l, estimated geometric mean [7, 11]: 51.6 ng/L
Glucagon at PGnadir, estimated geometric mean [7, 13]: 59.1 ng/L
Cortisol at PG3.0 mmol/l, estimated geometric mean [8, 10]: 153.8 nmol/L
Cortisol at PGnadir, estimated geometric mean ([8]; double dose, 19 glargine U100): 300.3 nmol/L
Cortisol at PGnadir, estimated geometric mean ([8]; triple dose, 29 glargine U100): 197.6 nmol/L
Cortisol at PG3.0 mmol/l, estimated geometric mean [8, 11]: 122.9 nmol/L
Noradrenaline at PG3.0 mmol/l, estimated geometric mean [9, 10]: 853.0 pmol/L
Noradrenaline at PGnadir, estimated geometric mean [9, 12]: 907.4 pmol/L
Noradrenaline at PG3.0 mmol/l, estimated geometric mean [9, 11]: 843.0 pmol/L
Noradrenaline at PGnadir, estimated geometric mean [9, 13]: 890.5 pmol/L

neutral protamine Hagedorn insulin
Participants with clinically significant hypoglycaemia ([1]; in vivo): 78%
